Assay results: a polymer gas permeability compilation

CH4 permeability	CO2 permeability	H2 permeability	N2 permeability	O2 permeability	Compound
		46.4 Barrer	1 Barrer	5 Barrer	*c1c(C)cc(C)c(N2C(=O)c3ccc(C(=O)c4ccc5c(c4)C(=O)N(*)C5=O)cc3C2=O)c1C (repeat unit)
	0.598 Barrer	3.75 Barrer	0.016 Barrer	0.149 Barrer	*c1cccc(N2C(=O)c3ccc(Oc4ccc(Oc5ccc6c(c5)C(=O)N(*)C6=O)cc4)cc3C2=O)c1 (repeat unit)
1.24 Barrer	36 Barrer		1.51 Barrer	7.88 Barrer	*Nc1ccc(C(c2ccc(NC(=O)c3ccc(Oc4cc(C(C)(C)C)c(Oc5ccc(C(*)=O)cc5)cc4C(C)(C)C)cc3)cc2)(C(F)(F)F)C(F)(F)F)cc1 (repeat unit)
0.522 Barrer	21 Barrer	15.5 Barrer	1.06 Barrer	5.6 Barrer	*Oc1ccc(S(=O)(=O)c2ccc(Oc3c(C)cc(C(C)(C)c4cc(C)c(*)c(C)c4)cc3C)cc2)cc1 (repeat unit)
0.63 Barrer	32.2 Barrer		1.27 Barrer	7.85 Barrer	*c1ccc2c(c1)Cc1cc(N3C(=O)c4ccc(C(c5ccc6c(c5)C(=O)N(*)C6=O)(C(F)(F)F)C(F)(F)F)cc4C3=O)ccc1-2 (repeat unit)
0.08 Barrer	2.12 Barrer		0.08 Barrer	0.54 Barrer	*Oc1ccc(S(=O)(=O)c2ccc(Oc3ccc(C(C)(C)c4ccc(*)cc4)cc3CN3C(=O)c4ccccc4C3=O)cc2)cc1 (repeat unit)
	2160 Barrer		116 Barrer	434 Barrer	*Oc1cc2c(cc1O*)C1(CC2(C)C)CC(C)(C)c2cc3c(cc21)Oc1c(c(C(F)(F)F)c(*)c(*)c1S(=O)(=O)c1ccccc1)O3 (repeat unit)
0.0356 Barrer	1.3 Barrer		0.0526 Barrer	0.4 Barrer	*Oc1ccc(C(C)(C)c2ccc(Oc3ccc4c(c3)C(=O)N(c3cccc(N5C(=O)c6ccc(*)cc6C5=O)c3)C4=O)cc2)cc1 (repeat unit)
1.09 Barrer	30.6 Barrer	67.4 Barrer	1.19 Barrer	7.41 Barrer	*Oc1c(Br)cc(C2(c3cc(Br)c(OC(=O)c4cc(C(*)=O)cc(C(C)(C)C)c4)c(Br)c3)OC(=O)c3ccccc32)cc1Br (repeat unit)
1.31 Barrer	62 Barrer	107 Barrer	2.57 Barrer	12.7 Barrer	*c1ccc(N2C(=O)c3ccc(C(c4ccc5c(c4)C(=O)N(*)C5=O)(C(F)(F)F)C(F)(F)F)cc3C2=O)cc1 (repeat unit)
0.206 Barrer	8.34 Barrer	27.1 Barrer	0.282 Barrer	1.96 Barrer	*Oc1c(Br)cc(C2(c3cc(Br)c(OC(=O)c4cccc(C(*)=O)c4)c(Br)c3)OC(=O)c3ccccc32)cc1Br (repeat unit)
10.3 Barrer	161 Barrer		10.3 Barrer	43.9 Barrer	*c1c(C)c2c(c(N3C(=O)c4ccc(Oc5ccc6c(c5)C(=O)N(*)C6=O)cc4C3=O)c1C)C(C)(C)CC2 (repeat unit)
		6.56 Barrer	0.023 Barrer	0.24 Barrer	*c1ccc2c(c1)C(=O)n1c-2nc2ccc(Oc3ccc4c(c3)nc3n4C(=O)c4ccc(*)cc4-3)cc21 (repeat unit)
0.94 Barrer	25.5 Barrer	63 Barrer	1.2 Barrer	6 Barrer	*Oc1c(C)cc(-c2cc(C)c(Oc3ccc(S(=O)(=O)c4ccc(*)cc4)cc3)c(C)c2C)c(C)c1C (repeat unit)
1.27 Barrer	31.8 Barrer		1.21 Barrer	5.8 Barrer	*Oc1ccc(S(=O)(=O)c2ccc(Oc3c(C)cc(-c4cc(C)c(*)c(C)c4)cc3C)cc2)cc1 (repeat unit)
1.49 Barrer	21.4 Barrer		2.42 Barrer	7.36 Barrer	*Oc1c(C)cc(*)c(C(=O)c2ccc(C)cc2)c1C (repeat unit)
3.65 Barrer	131 Barrer	212 Barrer	5.32 Barrer	28.1 Barrer	*c1ccc2c(c1)C1c3ccccc3C2c2ccc(N3C(=O)c4ccc(C(c5ccc6c(c5)C(=O)N(*)C6=O)(C(F)(F)F)C(F)(F)F)cc4C3=O)cc21 (repeat unit)
4 Barrer	110 Barrer	130 Barrer	3.8 Barrer	18 Barrer	*c1cc(C)c(C)c(N2C(=O)c3ccc(Oc4cc(C)c(Oc5ccc6c(c5)C(=O)N(*)C6=O)c(C)c4C)cc3C2=O)c1C (repeat unit)
2.72 Barrer	45.3 Barrer	96 Barrer	2.6 Barrer	12.7 Barrer	*Oc1c(C)cc(C(C)(C)c2cc(C)c(OC(=O)c3cc(C(*)=O)cc(C(C)(C)C)c3)c(C)c2)cc1C (repeat unit)
0.05 Barrer	1.6 Barrer	4.6 Barrer	0.053 Barrer	0.33 Barrer	*Oc1ccc(Oc2ccc(C(=O)c3ccc(*)cc3)cc2)c(-c2cc(C)cc(C)c2)c1 (repeat unit)
0.38 Barrer	8.7 Barrer	21 Barrer	0.54 Barrer	3.3 Barrer	*Oc1ccc(Oc2ccc(C(=O)c3ccc(*)cc3)cc2)c(-c2cc(C(F)(F)F)cc(C(F)(F)F)c2)c1 (repeat unit)
0.62 Barrer	17.1 Barrer		0.83 Barrer	4.33 Barrer	*c1ccc(-c2ccc(Oc3ccc(C4(c5ccc(Oc6ccc(-c7ccc(N8C(=O)c9ccc(C(=O)c%10ccc%11c(c%10)C(=O)N(*)C%11=O)cc9C8=O)cc7)cc6C(F)(F)F)cc5)c5ccccc5C(=O)N4c4ccccc4)cc3)c(C(F)(F)F)c2)cc1 (repeat unit)

Second part, the compound before the results:

Compound	CH4 permeability	CO2 permeability	H2 permeability	N2 permeability	O2 permeability
*=CC1CCC(C=*)C1 (repeat unit)	2.5 Barrer	15.4 Barrer	21 Barrer	1.5 Barrer	2.8 Barrer
*Oc1ccc(-c2ccc(C3CCC(Oc4ccc(C5(c6ccc(*)cc6)c6ccccc6-c6ccccc65)cc4)C(C(F)(F)F)C3)s2)cc1C(F)(F)F (repeat unit)	1.8 Barrer	35.7 Barrer	55 Barrer	1.99 Barrer	8.4 Barrer
*C(=C(*)c1ccc2c(c1)C(C)(C)c1ccccc1-2)c1cccc(F)c1 (repeat unit)	11000 Barrer	18000 Barrer	9900 Barrer	4200 Barrer	5900 Barrer
*C(=C(*)c1ccc([Si](C)(C)C)cc1)c1ccccc1 (repeat unit)	1550 Barrer	4700 Barrer	2600 Barrer	550 Barrer	1200 Barrer
*C(=C(*)c1ccc([Si](C(C)C)(C(C)C)C(C)C)cc1)c1ccccc1 (repeat unit)	315 Barrer	1300 Barrer	635 Barrer	130 Barrer	290 Barrer
*C(=C(*)c1ccc2c(c1)CCC2)c1ccccc1 (repeat unit)	60 Barrer	390 Barrer	360 Barrer	30 Barrer	86 Barrer
*CCOC(=O)c1ccc(C(=O)O*)cc1 (repeat unit)	3 Barrer	0.173 Barrer		0.013 Barrer	0.045 Barrer
*Oc1ccc(C(C)(C)c2ccc(Oc3ccc(C(=O)c4ccc(C(=O)c5ccc(*)cc5)cc4)cc3)cc2)cc1 (repeat unit)	0.084 Barrer	2.19 Barrer	9.07 Barrer	0.087 Barrer	0.604 Barrer
*CCCCO* (repeat unit)	22.5 Barrer	170 Barrer	36 Barrer	8.85 Barrer	21.5 Barrer
*C(=C(*)c1ccc([Si](C)(C)C)cc1)c1ccc(-c2ccc(C(C)(C)C)cc2)cc1 (repeat unit)	730 Barrer	3300 Barrer	1200 Barrer	250 Barrer	620 Barrer
*Oc1ccc(-c2c(-c3ccccc3)c(-c3ccccc3)c(-c3ccc4c(c3)Oc3c(C#N)c(*)c(*)c(C#N)c3O4)c(-c3ccccc3)c2-c2ccccc2)cc1O* (repeat unit)	192 Barrer	2390 Barrer	1000 Barrer	107 Barrer	340 Barrer
*Oc1ccc(C(C)(C)c2ccc(Oc3ccc(C(=O)c4ccc(*)cc4)cc3)cc2)cc1 (repeat unit)	0.18 Barrer	3.5 Barrer	11 Barrer	0.16 Barrer	1 Barrer
*Oc1ccc(C2(c3ccc(OC(=O)c4cccc(C(*)=O)c4)cc3)c3ccccc3-c3ccccc32)cc1 (repeat unit)	0.71 Barrer	20.1 Barrer		0.64 Barrer	3.92 Barrer
*CC(*)OCc1ccccc1 (repeat unit)		11.1 Barrer		0.79 Barrer	2.33 Barrer
*CC(*)(C)c1ccccc1 (repeat unit)	0.14 Barrer	3 Barrer		0.15 Barrer	0.82 Barrer
*Oc1ccc(C(c2ccc(OC(*)=O)cc2)(C(F)(F)F)C(F)(F)F)cc1 (repeat unit)	1.05 Barrer	24 Barrer	27 Barrer	1.7 Barrer	6.9 Barrer
*[Si](C)(C)CCCCCCCC[Si](*)(C)C (repeat unit)				76.2 Barrer	188 Barrer
*c1ccc(C2(c3ccc(*)cc3)c3ccccc3-c3ccccc32)cc1 (repeat unit)	0.84 Barrer	35.6 Barrer		1.36 Barrer	6.8 Barrer
*Oc1ccc(C2(c3ccc(OC(=O)c4cccc(C(*)=O)c4)cc3)OC(=O)c3ccccc32)cc1 (repeat unit)	0.251 Barrer	7.87 Barrer	17.2 Barrer	0.303 Barrer	1.78 Barrer
